Experimental data reported in PubChem BioAssay AID449750 (Broad Institute, 2010).
The source made the active and inactive calls. The rule behind the calls is not given here.

Assay: non-covalent RecA intein splicing inhibitors, dose response, biochemical, cell-free, fluorescence, secondary screen (AID 449750)
Compound `O=C(Nc1ccccc1N(C(=O)c1ccco1)S(=O)(=O)c1cccs1)c1ccco1` has an AC50 of 23.1 µM. With `COC(=O)Cc1[nH]nc2c1C1(CCSCC1)C(C#N)=C(N)O2` the AC50 was > 12 µM (inactive). In the case of `COc1ccc(N2C(=O)CSC23C(=O)N2c4c(cccc43)C(C)=CC2(C)C)cc1` (stereo not given), the AC50 is reported as 30.8 µM. For `O=C(NCc1ccc2c(c1)OCO2)c1nc(S(=O)(=O)Cc2ccccc2F)ncc1Cl`, the AC50 was > 38 µM (inactive). With `Nc1ccc2c(c1)C(=O)C(=O)c1ccccc1-2` the AC50 was 17.6 µM. With `CCOc1cc(NC2CS(=O)(=O)CC2O)c(OCC)cc1NC(=O)c1ccccc1` (stereo not given) the AC50 was > 38 µM (inactive). With `CC(C)(C)c1ccc(C(=O)Cn2cnnc2C#N)cc1` the AC50 was > 38 µM (inactive). With `Cc1ccc(C2C(C#N)=C(N)Oc3nc(-c4ccccc4)[nH]c32)o1` (stereo not given) the AC50 was > 38 µM (inactive). `COC(=O)COc1ccc(C(c2c(C)[nH][nH]c2=O)c2c(C)[nH][nH]c2=O)cc1` gave an AC50 of 13 µM. Compound `CC(C)CNC(=O)c1c(N)n(Cc2ccc3c(c2)OCO3)c2nc3ccccc3nc12` has an AC50 of 5.59 µM. Work on `c1ccc(Nc2nc(NCc3ccco3)c3ccccc3n2)cc1` yielded an AC50 of 10.8 µM. In the case of `COc1cc(C(=O)CSc2nnc(-c3ccc(O)cc3)n2CC2CCCO2)ccc1NC(C)=O` (stereo not given), the AC50 is reported as > 38 µM (inactive). In the case of `O=C(CCCN1C(=O)/C(=C\c2ccccc2)SC1=S)Nc1ccc(O)cc1C(=O)O`, the AC50 is reported as 32.7 µM. `O=C(N/N=C/c1cc(Cl)cc([N+](=O)[O-])c1O)c1ccccc1NS(=O)(=O)c1cccs1` showed an AC50 of 22.6 µM. For `Cc1nn(Cc2ccccc2)c2c1C(c1cccnc1)C(C#N)=C(N)O2` (stereo not given), the AC50 was > 38 µM (inactive). For `CC1=NN(c2ccccc2)C(=O)C1`, the AC50 was 3.24 µM. In the case of `COc1ccc(-c2cc(C(=O)n3cnc4ccccc43)c3ccccc3n2)cc1`, the AC50 is reported as > 38 µM (inactive). With `COc1ccc(C(=O)c2c(C(F)(F)F)oc3c2C(=O)c2ccccc2C3=O)cc1OC` the AC50 was > 38 µM (inactive). In the case of `Cc1cccc(CSC(Nc2ccc(F)cc2)=C(C#N)C#N)c1`, the AC50 is reported as > 38 µM (inactive). For `Cc1[nH]nc2c1C(c1cccs1)C(C#N)=C(N)O2` (stereo not given), the AC50 was > 38 µM (inactive). With `CCOC(=O)/C=c1\s/c(=C(\C#N)C(N)=O)n(-c2ccccc2)c1=O` the AC50 was > 38 µM (inactive). Compound `CC(=O)NC1C(=O)N(CCN2CCOCC2)c2ccc(Cl)cc21` (stereo not given) has an AC50 of 34.1 µM. Work on `Cc1cc(C(=O)c2ccc(Cl)cc2)c(NC(=O)CCl)s1` yielded an AC50 of 1.19 µM. For `CCOCC(=O)NCc1ccc2c(c1)cc(C)n2C`, the AC50 was > 38 µM (inactive). Compound `O=C(NC1CCCCC1)C(c1cccnc1)N(C(=O)CCl)c1cccc(Cl)c1` (stereo not given) has an AC50 of 3 µM. In the case of `CCOC(=O)CSc1n[nH]c(NC(=O)c2cccc(C(F)(F)F)c2)n1`, the AC50 is reported as > 38 µM (inactive). For `CN1CCN(c2ccc([N+](=O)[O-])c3no[n+]([O-])c23)CC1`, the AC50 was > 38 µM (inactive). Compound `CC(=O)N(C1=C(Cl)C(=O)c2ccccc2C1=O)C1CCCCC1` has an AC50 of 2.79 µM. `CC(C)(C)c1csc(NC(=O)c2c(F)c(F)c(F)c(F)c2F)n1` showed an AC50 of 16.3 µM. In the case of `Cn1c(=O)[nH]c(=O)c2c1nc([N+](=O)[O-])n2Cc1ccccc1`, the AC50 is reported as > 38 µM (inactive). For `C/C(CC(=O)Nc1ccccn1)=N\NC(=O)c1ccncc1`, the AC50 was 28.8 µM. In the case of `CCCCn1[nH]c(-c2ccccc2)cc1=O`, the AC50 is reported as 8.57 µM. `COc1cc(C(c2c(C)[nH][nH]c2=O)c2c(C)[nH][nH]c2=O)ccc1OC(C)C` showed an AC50 of 12 µM. In the case of `O=C1C(Cl)=C(N2CCCCC2)C(=O)C(Cl)=C1c1cnc(N2CCCCC2)s1`, the AC50 is reported as > 38 µM (inactive). `COCc1[nH]nc2c1C(c1ccsc1)C(C#N)=C(N)O2` (stereo not given) showed an AC50 of 35.3 µM. In the case of `CCCn1nc([N+](=O)[O-])c(C(C#N)c2nc3ccccc3s2)c(Cl)c1=O` (stereo not given), the AC50 is reported as 23.4 µM. With `COc1cc(NC(C)CCCN)c2ncccc2c1Oc1ccccc1` (stereo not given) the AC50 was 15.2 µM. `O=C(O)c1ccccc1-c1ccccc1C(=O)Nc1ccc(-c2nc3cc(Cl)ccc3o2)cc1` gave an AC50 of 9.29 µM. In the case of `Cc1cc(=O)n(C2CCS(=O)(=O)C2)[nH]1` (stereo not given), the AC50 is reported as 3.63 µM. For `COC(=O)CCS(=O)(=O)c1nc(-c2ccccc2)cc(C(F)(F)F)n1`, the AC50 was > 38 µM (inactive). With `COc1ccc(Br)cc1[C@H]1[C@H]2C=CC[C@@H](C)[C@@H]2C(=O)N1Cc1ccccc1` the AC50 was 14.4 µM. For `O=[N+]([O-])c1c(NCCCO)cc(SCc2ccco2)c2nonc12`, the AC50 was > 38 µM (inactive). With `O=C(CCl)Nc1cccc(Oc2ccccc2)c1` the AC50 was 6.15 µM. Compound `Cc1nnc(NC(=O)c2nc(S(=O)(=O)Cc3ccccc3)ncc2Cl)s1` has an AC50 of 26.5 µM. In the case of `O=C(N/N=C/c1ccc(-c2ccccc2[N+](=O)[O-])o1)[C@H]1C[C@@H]1c1ccccc1`, the AC50 is reported as 9.01 µM. With `O=[N+]([O-])c1c(Nc2ccccn2)cc(Cl)c2nonc12` the AC50 was 1.76 µM. `O=C(CCl)N1CCN(S(=O)(=O)c2ccc3ccccc3c2)CC1` gave an AC50 of 6.51 µM. `O=C(CCl)Nc1c2c(nn1-c1ccccc1)CSC2` showed an AC50 of 29.2 µM. `O=c1c(Cl)c(Cl)cnn1Cc1ccccc1Cl` gave an AC50 of 36.8 µM. `CC(=O)Nc1cc(OC(=O)c2ccco2)cc(OC(=O)c2ccco2)c1` showed an AC50 of 11.8 µM. For `O=C1COc2ccc(C(=O)CCl)cc2N1`, the AC50 was > 38 µM (inactive). In the case of `COc1cc(NC(C)CCCN)c2ncccc2c1` (stereo not given), the AC50 is reported as 12.3 µM. For `O=C(NC(NC(=S)Nc1ccc(Cl)cc1Cl)C(Cl)(Cl)Cl)c1cccc([N+](=O)[O-])c1` (stereo not given), the AC50 was 2.62 µM. For `C/C(CC(=O)Nc1cccnc1)=N\NC(=O)c1ccc([N+](=O)[O-])c(Cl)c1`, the AC50 was > 38 µM (inactive). Work on `C=CCNC1=C(Cl)C(=O)c2ccccc2C1=O` yielded an AC50 of 18.4 µM. With `CCOC(=O)C1(CCOc2ccccc2)CCN(Cc2ccc(O)c(Cl)c2)CC1` the AC50 was > 38 µM (inactive). With `Cn1nc(-c2ccccn2)nc2c(=O)n(C)c(=O)nc1-2` the AC50 was 0.176 µM. With `CNC1=C(N(C(C)=O)c2ccc(Br)cc2)C(=O)c2ccccc2C1=O` the AC50 was 2.43 µM. In the case of `Cc1ccc2[nH]c3c(c2c1)CN(C(=O)CN1CCSCC1)CC3`, the AC50 is reported as > 38 µM (inactive). Work on `CCc1cccc(CC)c1NC(=O)/C(C#N)=C/c1ccccc1C(F)(F)F` yielded an AC50 of 11.6 µM. With `O=c1c2ccccc2nc(/C=C/c2cccnc2)n1Cc1ccccc1` the AC50 was 13.6 µM. With `OCC[n+]1c2ccccc2nc2ccc(N3CCOCC3)cc21` the AC50 was 26.5 µM. With `CCOc1ccc2c(c1)-c1c(ssc1=S)C(C)(C)N2` the AC50 was > 38 µM (inactive). In the case of `CC(C)S(=O)(=O)C1=NSC2=NC(=O)/C(=C\c3ccc(OC(=O)c4ccco4)cc3)C(=N)N21`, the AC50 is reported as 30.6 µM. `Cc1ccc(-c2[nH]nc3c2C(c2ccc(OC(=O)N4CCOCC4)cc2)C(C#N)=C(N)O3)cc1` (stereo not given) gave an AC50 of 21.1 µM. For `O=C(CCl)N(Cc1cccc([N+](=O)[O-])c1)c1cccc(Cl)c1`, the AC50 was 2.77 µM. In the case of `O=C1C(Cc2ccccc2)Nc2ncnc(N3CCc4ccccc4C3)c2N1Cc1ccc(Cl)cc1` (stereo not given), the AC50 is reported as > 38 µM (inactive). With `O=[N+]([O-])c1ccc(N2CCOCC2)c2ccncc12` the AC50 was > 38 µM (inactive). For `CN1CCc2nc(SCC(=O)Nc3ccc(F)cc3)c(C#N)cc2C1`, the AC50 was > 38 µM (inactive). For `Cc1ccc(SCc2[nH]nc3c2C(c2ccco2)C(C#N)=C(N)O3)cc1` (stereo not given), the AC50 was 14.8 µM. `C/C(CC(=O)Nc1cc(C)ccn1)=N\NC(=O)COc1cccc(C)c1` showed an AC50 of 11.1 µM. With `Cn1nc([N+](=O)[O-])nc1Sc1nnc(-c2ccccc2)o1` the AC50 was > 38 µM (inactive). For `CC(=O)OCCN(C)c1cc(SC(C)C)c2nonc2c1[N+](=O)[O-]`, the AC50 was > 38 µM (inactive). In the case of `COc1ccc(NC(=O)Cn2ncc(Cl)c(Cl)c2=O)cc1S(=O)(=O)N1CCOCC1`, the AC50 is reported as > 38 µM (inactive). For `CC(=O)n1cc(N(C(=O)CCl)c2ccc([N+](=O)[O-])cc2)c2ccccc21`, the AC50 was 4.74 µM. In the case of `COc1ccccc1/C=C1/C(=O)N(c2ccccc2)N=C1C`, the AC50 is reported as > 38 µM (inactive). `Cc1ccc2c(c1)Oc1ccc(NC(=O)CCl)cc1C(=O)N2` gave an AC50 of 6.94 µM. For `COCc1[nH]nc2c1C(c1cccc(OC)c1)C(C#N)=C(N)O2` (stereo not given), the AC50 was > 38 µM (inactive). `Cc1c(N=C2C=CC(=O)c3ccccc32)c(=O)n(-c2ccccc2)n1C` showed an AC50 of 3.51 µM. Work on `COCc1[nH]nc2c1C(c1ccccc1OC)C(C#N)=C(N)O2` (stereo not given) yielded an AC50 of 36.5 µM. `CN1C(=O)/C(=C/c2ccc(-c3ccccc3[N+](=O)[O-])o2)SC1=Nc1ccc(Cl)c(C(=O)O)c1` gave an AC50 of 17.1 µM. In the case of `O=C(Oc1ccc(Br)cc1C(=S)N1CCOCC1)c1cccc([N+](=O)[O-])c1`, the AC50 is reported as > 38 µM (inactive). With `COc1ccc(OC)c(N2C(=O)C(Cl)=C(N3CCCCC3)C2=O)c1` the AC50 was > 38 µM (inactive). In the case of `OC(CNCCC1C=Nc2ccccc21)Cn1c2ccc(Cl)cc2c2cc(Cl)ccc21` (stereo not given), the AC50 is reported as 8.48 µM. Work on `COC(=O)c1ccc(-c2ccc(C(c3c(C)[nH][nH]c3=O)c3c(C)[nH][nH]c3=O)o2)cc1` yielded an AC50 of 1.6 µM. With `O=C1c2cc(F)ccc2-n2c1nc1ccccc1c2=O` the AC50 was > 38 µM (inactive). For `Cn1cnc([N+](=O)[O-])c1Sc1ccc(C(C)(C)C)cc1`, the AC50 was > 38 µM (inactive). For `CCOC(=O)c1c(CSC(=N)N)n(-c2ccc(C)cc2)c2cc(Br)c(OC(C)=O)cc12`, the AC50 was 8.36 µM. In the case of `Cc1onc(-c2c(Cl)cccc2Cl)c1C(=O)N1C(C)CCCC1C` (stereo not given), the AC50 is reported as > 38 µM (inactive). For `CCOC(=O)CSc1nnc(NCC(=O)OC(C)C)c(=O)[nH]1`, the AC50 was > 38 µM (inactive). Work on `CCCCCCCCCCCCCCCC[N+](C)(C)C` yielded an AC50 of 12.1 µM. In the case of `Nc1scc2c(C(=O)N/N=C/c3ccc(Cl)cc3)nn(-c3ccccc3)c(=O)c12`, the AC50 is reported as 28.1 µM. Work on `CCOC(=O)C1=C(C)NC(SCc2cc(=O)[nH][nH]2)=C(C#N)C1c1cccs1` (stereo not given) yielded an AC50 of 4.69 µM. With `Nc1nn2c(-c3ccccc3)cc(=O)[nH]c2c1N=Nc1ccc(O)cc1` the AC50 was > 38 µM (inactive). In the case of `CCC(=O)Nc1c(C)nn(C(=O)CC)c1C`, the AC50 is reported as > 38 µM (inactive). Work on `Cc1ccc(C(c2c(C)[nH][nH]c2=O)c2c(C)[nH][nH]c2=O)cc1[N+](=O)[O-]` yielded an AC50 of 32.1 µM. In the case of `O=C(CSc1nc2ccccc2nc1SCC(=O)N1CCOCC1)N1CCOCC1`, the AC50 is reported as > 38 µM (inactive). In the case of `O=[N+]([O-])c1cc(S(=O)(=O)C(F)(F)F)ccc1Sc1nc2ccccc2[nH]1`, the AC50 is reported as 16 µM. With `COc1cc(C2CC(c3cccs3)=NN2C(=O)CCl)ccc1OC(F)F` (stereo not given) the AC50 was > 38 µM (inactive). For `Cc1cc2nc(Sc3c([N+](=O)[O-])nc(C)n3Cc3ccccc3)[nH]c2cc1C`, the AC50 was > 38 µM (inactive). For `O=c1[nH]c(Nc2ccccc2Cl)cc2ccccc12`, the AC50 was 15.5 µM. In the case of `Cc1ccc(CNC(=O)c2ccc(N(C)S(=O)(=O)c3ccccc3)cc2)cc1`, the AC50 is reported as > 38 µM (inactive). With `C(=N\Nc1nncc2ccccc12)/c1ccccn1` the AC50 was 19.8 µM. With `CCC(=O)N/N=C(\C)CC(=O)Nc1cccc([N+](=O)[O-])c1` the AC50 was > 38 µM (inactive). Compound `COc1ccc(S(=O)(=O)/N=C2\C=C(NS(=O)(=O)c3ccccc3)C(=O)c3ccccc32)cc1` has an AC50 of 2.95 µM.
